Data on four compounds can be found in patent US7897602B2, “Indolinone compounds as kinase inhibitors” (Development Center for Biotechnology, priority 2009, dated 2011).

What all share (type): biochemical
The target in one assay is T1, VEGFR2 kinase (Homo sapiens, UniProt P35968).
T1 construct: recombinant N-terminal 6×His-tagged VEGFR2 kinase domain construct expressed by baculovirus; 6xHis (N); made in house
Put plainly: VEGFR2 kinase assay (33P incorporation into Poly(Glu-Tyr)). Conditions: 500 nM test compound; read-out: Inhibition at 500 nM (%) VEGFr-2. In short, it runs like this:
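Recombinant baculovirus-expressed N-terminal His6-tagged VEGFR2 kinase domain (6.25 ng) phosphorylated poly(Glu-Tyr) 4:1 with 100 μM ATP plus [33P]-γ-ATP in MOPS pH 7.0, 30 °C, 30 min. Test compound was at 500 nM (4% DMSO). Filter-retained radioactivity relative to DMSO control gave % inhibition.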

For another assay, the target named is T2, Aurora B kinase (Homo sapiens, UniProt Q96GD4).
T2 construct: purchased Cell signaling
T2 sequence (Q96GD4 whole entry): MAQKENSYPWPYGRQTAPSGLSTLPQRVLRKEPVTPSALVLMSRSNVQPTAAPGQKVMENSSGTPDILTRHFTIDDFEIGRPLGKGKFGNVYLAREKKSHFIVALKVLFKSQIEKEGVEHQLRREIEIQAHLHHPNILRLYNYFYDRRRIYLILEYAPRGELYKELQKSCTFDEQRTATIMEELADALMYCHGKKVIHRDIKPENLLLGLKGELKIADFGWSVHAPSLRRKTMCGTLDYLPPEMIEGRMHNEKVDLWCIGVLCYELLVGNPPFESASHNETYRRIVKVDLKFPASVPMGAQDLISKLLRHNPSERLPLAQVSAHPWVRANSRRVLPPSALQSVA
The assay can be described thus: Aurora B kinase assay ([γ-33P]ATP, CHOCKtide substrate). Conditions: 1.0 μM test compound. In short, it runs like this:
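Recombinant Aurora A (1 ng) or Aurora B (2.5 ng) incubated with test compound, CHOCKtide (1 μg) and [γ-33P]ATP/ATP at 10 μM (Aurora A) or 40 μM (Aurora B), 30 min at 33 °C. Stopped with phosphoric acid; filter-bound 33P counted; IC50 = half-maximal inhibition.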

The target of a further assay is T3, Flt3 kinase (Homo sapiens, UniProt P36888).
T3 construct: recombinant N-terminal 6×His-tagged Flt3 kinase domain construct expressed from baculovirus; 6xHis (N); made in house
T3 sequence (P36888 610-943 limits assumed): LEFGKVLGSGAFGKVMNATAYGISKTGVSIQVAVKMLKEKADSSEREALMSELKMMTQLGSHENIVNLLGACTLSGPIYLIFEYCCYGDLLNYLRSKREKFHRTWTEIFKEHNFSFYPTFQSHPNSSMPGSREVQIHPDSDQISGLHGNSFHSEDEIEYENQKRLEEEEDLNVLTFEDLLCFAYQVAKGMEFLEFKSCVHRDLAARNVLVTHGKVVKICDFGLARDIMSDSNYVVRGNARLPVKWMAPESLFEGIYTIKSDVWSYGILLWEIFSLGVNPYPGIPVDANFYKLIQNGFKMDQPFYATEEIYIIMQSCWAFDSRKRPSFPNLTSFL
The assay can be described thus: Flt3 kinase assay (33P incorporation into Poly(Glu-Tyr)). Conditions: 100 nM test compound; read-out: Inhibition at 100 nM (%) Flt-3. In short, it runs like this: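 Baculovirus-expressed His-tagged Flt3 kinase domain (5 ng) with Poly(Glu-Tyr) 4:1 substrate, 100 μM ATP plus [33P]-γ-ATP, in MOPS pH 7.0 buffer, 30 min at 30 °C. Compound tested at a single 100 nM concentration; filter-bound radioactivity counted and percent inhibition calculated relative to DMSO control.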

Usually inhibition stands for the relative decrease from the control value, in per cent.

T1 sequence (P35968 834-1162 limits assumed): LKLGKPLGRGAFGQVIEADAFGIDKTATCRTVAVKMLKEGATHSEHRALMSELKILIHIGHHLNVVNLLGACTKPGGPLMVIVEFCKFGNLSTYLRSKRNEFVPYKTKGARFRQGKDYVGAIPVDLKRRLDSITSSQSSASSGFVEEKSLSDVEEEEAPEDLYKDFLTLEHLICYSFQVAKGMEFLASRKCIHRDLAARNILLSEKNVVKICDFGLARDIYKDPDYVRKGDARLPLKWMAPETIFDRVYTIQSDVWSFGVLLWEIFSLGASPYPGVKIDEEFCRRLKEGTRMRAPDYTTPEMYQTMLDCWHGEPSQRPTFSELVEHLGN

With `CCOC(=O)CCc1c(/C=C2\C(=O)Nc3ccc(NC(=O)c4ccc(OC)cc4)cc32)[nH]c2c1C(=O)CCC2` [DCB-70141, (Z)-ethyl 3-(2-((5-(4-methoxybenzamido)-2-oxoindolin-3-ylidene)methyl)-4-oxo-4,5,6,7-tetrahydro-1H-indol-3-yl)propanoate], on VEGFR2 kinase, the inhibition at 0.5 µM came to 28.9%. Also, on Aurora B kinase, the inhibition at 1 µM was -23%. The inhibition at 0.1 µM at Flt3 kinase came to 10.7%.
Take `COc1ccc(C(=O)Nc2ccc3c(c2)/C(=C/c2[nH]c4c(c2CCC(=O)O)C(=O)CCC4)C(=O)N3)cc1` [DCB-70143, (Z)-3-(2-((5-(4-methoxybenzamido)-2-oxoindolin-3-ylidene)methyl)-4-oxo-4,5,6,7-tetrahydro-1H-indol-3-yl)propanoic acid]: the inhibition at 0.5 µM on VEGFR2 kinase was 38.1%. Moreover, on Aurora B kinase, the inhibition at 1 µM came out at 9.1%. For the same compound, at Flt3 kinase, the inhibition at 0.1 µM came out at 6%.
For the compound `CN(c1cccc(Cl)c1)S(=O)(=O)c1ccc2c(c1)/C(=C/c1[nH]c3c(c1CCC(=O)O)C(=O)CCCC3)C(=O)N2` [DCB-70148, (Z)-3-(2-((5-(N-(3-chlorophenyl)-N-methylsulfamoyl)-2-oxoindolin-3-ylidene)methyl)-4-oxo-1,4,5,6,7,8-hexahydrocyclohepta[b]pyrrol-3-yl)propanoic acid], the inhibition at 0.5 µM at VEGFR2 kinase was determined as 67.6%. Further, the inhibition at 1 µM on Aurora B kinase was determined as 30.2%. Further, the inhibition at 0.1 µM at Flt3 kinase is 9.7%.
The matching figures for `O=C(O)CCc1c(/C=C2\C(=O)Nc3ccc(S(=O)(=O)Nc4ccc(F)c(Cl)c4)cc32)[nH]c2c1C(=O)CCCC2` [DCB-70149, (Z)-3-(2-((5-(N-(3-chloro-4-fluorophenyl)sulfamoyl)-2-oxoindolin-3-ylidene)methyl)-4-oxo-1,4,5,6,7,8-hexahydrocyclohepta[b]pyrrol-3-yl)propanoic acid]: 57.5%, 18.7% and 7.3%.
